For the experiment, the target named is HDM2 protein (Homo sapiens, UniProt Q00987). Kind of experiment: fluorescence polarization screening assay (FP). The format is binding. Particulars: inhibitory concentration that achieves 50% of maximal activity.

These results are taken from patent US7884107B2, “Substituted piperidines that increase P53 activity and the uses thereof” (Merck, priority 2006, dated 2011).

HDM2 protein, sequence (Q00987 whole entry): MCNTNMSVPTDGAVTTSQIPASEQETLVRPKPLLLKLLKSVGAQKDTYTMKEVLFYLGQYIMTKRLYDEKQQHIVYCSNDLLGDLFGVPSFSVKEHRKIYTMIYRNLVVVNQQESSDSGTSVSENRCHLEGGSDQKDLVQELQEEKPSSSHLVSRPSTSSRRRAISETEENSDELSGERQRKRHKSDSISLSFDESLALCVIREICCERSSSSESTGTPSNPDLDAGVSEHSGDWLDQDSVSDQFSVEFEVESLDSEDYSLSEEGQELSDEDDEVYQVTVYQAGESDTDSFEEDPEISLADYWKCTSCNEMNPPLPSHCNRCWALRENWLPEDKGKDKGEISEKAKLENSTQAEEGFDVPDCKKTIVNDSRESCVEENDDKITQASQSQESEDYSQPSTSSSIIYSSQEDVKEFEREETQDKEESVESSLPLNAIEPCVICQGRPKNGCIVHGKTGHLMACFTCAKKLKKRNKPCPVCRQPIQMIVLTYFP

Compound `CC(=O)Nc1ccccc1N1CCN(C(=O)C2(Oc3ccc(Br)c(F)c3)CCCN(C(=O)c3cnccc3C(F)(F)F)C2)CC1` (centres unmarked) [AU] had a half-maximal inhibitory concentration (IC50) of 510 nM.

The compound `COc1ccccc1N1CCN(C(=O)C2(Oc3ccc(C(F)(F)F)cc3)CCCN(C(=O)c3cnccc3C(F)(F)F)C2)C(C(=O)NCCO)C1` (centres unmarked) [CR] gave a half-inhibitory concentration (IC50) of 950 nM.
